Molecules are shown by their SMILES.

For test [1], the system named is hemolysin antibody. Put plainly: Hemolysin antibody caused by chick RBC, NIH mouse. It is filed as in vivo. The note with it: 0.02 g/kg, 0˜7. The protocol:
(§1) 190 mice, 18-22 g weight, half male and half female, were divided into 19 groups. Each mouse was immunized with 5% CRBC solution 0.2 ml. The Fengshiping solutions were drenched at the different times. 7 days after the immunization, all the mice were sampled the blood from the eyes. Then the blood samples were diluted and measured the level of the hemolysin antibody.

In the next test the test system is IL-2. The test can be described thus: IL-2 level of cultured cells from dosed mice (CTLL cells). It is filed as in vivo, ICR mice. The note with it: 0.02 g/kg, 10 days. Here is the method: (§2) 60 ICR mice, 1822 g, half male and half female, were divided into 6 groups at random. Each group was drenched of the correspondent medicines including the different dosages of Fengshiping and the other medicines. The medicines were administrated once a day for 10 days. 24 hours after the last administration, the mice were sampled the macrophage and spleen cells from the abdominal cavity in the aseptic condition. The samples were washed with Hank's liquor for 2 times and non-serum RPIM 1640 liquor for 1 time. Then the washed samples were diluted to the suspension with the 5% FCS-RPMI 1640 at the concentration of 2×10^8/ml. Then the suspensions were added with 10 ng/ml LPS or the 10 ng/ml ConA and cultured in the 5% CO2 condition for 48 hours at 37° C. Then the cultured suspension were measured the TNF α and IL-2 levels on the usual methods.
The CTLL cells which was on the logarithmic growth phase and whose growth depends on the IL-2, were adjusted to the suspension at the concentration of 1×10^5/ml with the 5% FCS-RPMI 1640. Then the 96 hole cell culturing batten were added with the CTLL cell suspension on the quantity of 100 μl/hole. The supernates were added on the quantity of 100 μl/hole and each sample was added to 3 holes. […] The samples were cultured for 3 hours at 37° C., and then measured the OD at the wavelength 570 nm and 630 nm. […]

The test system of another test is NK cell. The test can be described thus: NK cell activity (Yack-1 target cells). The test is classed as in vivo, ICR mice. The note with it: 0.02 g/kg. Here is the method:
The experiment was same to 5.1. 24 hours after the last administration, the spleen cell samples were made into the 2×10^8/ml cell suspension with 5% FCS-RPIM1640. The quantity of CD4, CD8, NK cells and the rate CD4/CD8 were measured on the usural method.
The preparation of the EC cell: The spleen cells were sampled in the asepsis condition. Then the samples were washed by the Hank's liquor for 2 times and nonserum RPMI1640 liquor for 1 time. Then the clear samples were adjusted to the 2×10^8/ml cell suspension with 5% FCS-RPMI liquor. This cell suspension was used as the EC.
The preparation of the TC cell: The Yack-1 cells, which were sensitive to the mouse NK cell and on the logarithmic growth phase, were adjusted to the 4×10^4/ml cell suspension. It was the TC.
Measurement: EC and TC, 100 μl each were added in the 96-hole flat bottom cell culturing batten. Each sample was cultured with 3 copies and set 2 control samples: EC and TC. […] The samples were cultured in 5% CO2 at 37° C. for 24 hours. 6 hours before the end of the culturing, the samples were centrifuged and sucked out 110 μl supernate each hole. And then the holes were added in the MTT 10 μl. After put at 37° C. for 3 hours, the mixed samples were measured the OD value at the wavelength of 570 nm and 630 nm. The OD of each hole=OD570 nm-OD630 nm.

Test [2] deals with hemolysin antibody. The test can be described thus: Hemolysin antibody caused by chick RBC, ICR mouse. The test is classed as in vivo. The note with it: 0˜7. Here is the method: as §1
Another test has as its system TNF α. The test can be described thus: TNF α level of cultured cells from dosed mice. The note with it: 0.02 g/kg, 10 days. The test is classed as in vivo, ICR mice. Here is the method:
as §2
The batten was coated by mouse TNF-α monoclonal antibody. The batten was added with the cultured supernate on the dose of 50 μl/hole. Then the batten was put still for 60 minutes at the room temperature. Then the batten was added with biotin antibody mark at 25° C. for 2 hours. Then the enzyme labeled avidin was added into the batten for 30 minutes. […] The mixed liquor was measured the OD value at the wavelength of the 450 nm. The content of the TNF-α (ng/ml) was calculated on the data of OD value by the method of standard curve.

Regarding `O=P1(N(CCCl)CCCl)NCCCO1` (stereo not drawn) [cyclophosphane], the Hemolysin value in the test on hemolysin antibody [1] is listed as 35.0 ± 12.0; in the test with hemolysin antibody [2] (Table 3.2, 0.02 g/kg), 27.80 ± 6.60; in the test on hemolysin antibody [2] (Table 3.3, 0.02 g/kg), 25.0 ± 4.0. Further, the Inhibiting percent with hemolysin antibody [1] is on record as 79.3%; in the test on hemolysin antibody [2] (Table 3.2, 0.02 g/kg), 77.9%; with hemolysin antibody [2] (Table 3.3, 0.02 g/kg), 90.2%. In addition, the IL-2 in the test on IL-2 is 10.10 ± 3.00 IU/ml. Also, the NK in the test on NK cell was 23.10 ± 3.66 ^. Also, the TNF with TNF α came out at 42.20 ± 9.57 pg/mL.

These data come from patent US20050220906A1, “Pharmaceutical composition for treating rheumatism and the preparation thereof” (priority 2002, published 2005).
